How the values were obtained:
[1] = molecular target: T1, Aβ1-42 aggregates (Homo sapiens, UniProt P05067); assay: Competitive binding experiment with [125I]IMPY; settings: competition with [125I]IMPY, Aβ1-42, 37° C., 3 hours
T1 construct: preparing Aβ1-42 proteins according to the known methods
Protocol: (1) formulating a 0.1% BSA solution with pH=7.4;
(2) preparing a radioligand [125I] IMPY according to the known methods; formulating [125I] IMPY into a solution of 60000-100000 cpm/100 μL for later use;
(3) formulating the compound to be tested into a 10^−5 to 10^−11 mol/L serially diluted ethanol solution;
(4) preparing Aβ1-42 proteins according to the known methods, and diluting it into an aqueous solution of about 30 nM;
(5) soaking a glass fiber filter membrane in PBS solution containing 0.1% polyethyleneimine for 30 minutes;
(6) adding 100 μL of the test compound solutions with different concentrations and 100 μL of [125I] IMPY solution, 700 μL of BSA solution and 100 μL of Aβ1-42 solution into a 12 mm×75 mm borosilicate glass tube, and vortexing;
(7) incubating with shaking in a constant temperature water bath at 37° C. for 3 hours;
(8) collecting the reaction solution by a multi-head cell collector, and rinsing the reaction solution for three times with 10% ethanol solution;
(9) measuring and counting with a gamma counter;
(10) analyzing and processing data using GraphPrad Prism 5.01 to obtain an affinity constant Ki.
Activity between some compounds and Aβ1-42 aggregates was quantitatively determined by the method.

[2] = Biodistribution experiment in normal mice; type: in vivo, mice (ICR, male); settings: for biodistribution, blood / biodistribution, brain: normal ICR mice; for clearance from the brain / passage through the blood-brain barrier / time at which the brain uptake reaches its peak: normal mice; for time at which the brain uptake reaches its peak: after injection
Protocol: Pharmacokinetic properties in mice, especially the initial brain uptake and brain clearance, were studied through distribution experiments in vivo.
5-10 μCi labelled compounds (100 μL physiological saline solution, containing 10% ethanol) were injected into normal mice (ICR, male, 20-22 g, 5 weeks old) through the tail vein (n=5), and mice were decapitated at 2 minutes, 10 minutes, 30 minutes and 60 minutes after injection, respectively, and organs to be tested were took out by dissection, and the wet weight was measured and radioactive counting was conducted. Data is expressed as the percentage of radioactive dose per gram of organ (% ID/g).

[3] = 2 min after tail vein injection
[4] = 10 min after tail vein injection
[5] = 30 min after tail vein injection
[6] = 60 min after tail vein injection

T1 sequence (P05067 672-713): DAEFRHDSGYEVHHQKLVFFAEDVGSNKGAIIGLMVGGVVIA

| Ki [1] | biodistribution, blood [2, 3] | biodistribution, blood [2, 4] | biodistribution, blood [2, 5] | biodistribution, blood [2, 6] | biodistribution, brain [2, 3] | biodistribution, brain [2, 4] | biodistribution, brain [2, 5] | biodistribution, brain [2, 6] | time at which the brain uptake reaches its peak [2] | Structure (SMILES) | clearance from the brain [2] | passage through the blood-brain barrier [2] |
| --- | --- | --- | --- | --- | --- | --- | --- | --- | --- | --- | --- | --- |
| 45.2 ± 18.4 nM |  |  |  |  |  |  |  |  |  | CNc1ccc(/C=N/N=C/c2ccc(NC)cc2)cc1 [Compound 9] |  |  |
| 5.1 ± 1.87 nM |  |  |  |  |  |  |  |  |  | CCN(CC)c1ccc(/C=N/N=C/c2ccc(N(CC)CC)cc2)cc1 [Compound 11] |  |  |
| 1.2 ± 0.25 nM |  |  |  |  |  |  |  |  |  | C(=N\N=C\c1ccc(N2CCCC2)cc1)/c1ccc(N2CCCC2)cc1 [Compound 13] |  |  |
| 1.39 ± 0.25 nM |  |  |  |  |  |  |  |  |  | C(=N\N=C\c1ccc(N2CCCCC2)cc1)/c1ccc(N2CCCCC2)cc1 [Compound 14] |  |  |
| 147 ± 2.06 nM |  |  |  |  |  |  |  |  |  | C(=N\N=C\c1ccc(N2CCOCC2)cc1)/c1ccc(N2CCOCC2)cc1 [Compound 15] |  |  |
| 124 ± 21.7 nM |  |  |  |  |  |  |  |  |  | CN(C)c1ncc(/C=N/N=C/c2cnc(N(C)C)nc2)cn1 [Compound 17] |  |  |
| 35.1 ± 19.3 nM |  |  |  |  |  |  |  |  |  | CNc1ccc(/C=N/N=C/c2ccc(N(C)C)cc2)cc1 [Compound 36] |  |  |
| 277 ± 50.5 nM |  |  |  |  |  |  |  |  |  | CNc1ccc(/C=N/N=C/c2ccc(O)cc2)cc1 [Compound 63] |  |  |
| 5.17 ± 1.4 nM |  |  |  |  |  |  |  |  |  | CN(C)c1ccc(/C=N/N=C/c2ccc(OCCF)cc2)cc1 [Compound 87] |  |  |
| 10.4 ± 6.71 nM |  |  |  |  |  |  |  |  |  | CNc1ccc(/C=N/N=C/c2ccc(OCCF)cc2)cc1 [Compound 88] |  |  |
| 2.45 ± 1.7 nM |  |  |  |  |  |  |  |  |  | CN(C)c1ccc(/C=N/N=C/c2ccc(OCCOCCF)cc2)cc1 [Compound 89] |  |  |
| 8.07 ± 2.89 nM |  |  |  |  |  |  |  |  |  | CNc1ccc(/C=N/N=C/c2ccc(OCCOCCF)cc2)cc1 [Compound 90] |  |  |
| 6.38 ± 0.72 nM |  |  |  |  |  |  |  |  |  | CN(C)c1ccc(/C=N/N=C/c2ccc(OCCOCCOCCF)cc2)cc1 [Compound 91] |  |  |
| 46.4 ± 15.5 nM |  |  |  |  |  |  |  |  |  | CNc1ccc(/C=N/N=C/c2ccc(OCCOCCOCCF)cc2)cc1 [Compound 92] |  |  |
| 10.9 ± 0.97 nM |  |  |  |  |  |  |  |  |  | CN(C)c1ccc(/C=N/N=C/c2ccc(OCCOCCOCCF)nc2)cc1 [Compound 93] |  |  |
| 42.9 ± 20.5 nM |  |  |  |  |  |  |  |  |  | CNc1ccc(/C=N/N=C/c2ccc(OCCOCCOCCF)nc2)cc1 [Compound 94] |  |  |
|  | 3.98 ± 0.24 % ID/g | 3.36 ± 0.19 % ID/g | 3.00 ± 0.13 % ID/g | 2.73 ± 0.42 % ID/g | 10.66 ± 0.89 % ID/g | 11.00 ± 0.80 % ID/g | 6.69 ± 0.42 % ID/g | 4.56 ± 0.58 % ID/g | 2 min | CN(C)c1ccc(/C=N/N=C/c2ccc(OCC[18F])cc2)cc1 [[18F]87] | cleared faster in the brain of normal mice | can effectively pass through the blood-brain barrier |
|  | 3.32 ± 0.26 % ID/g | 3.57 ± 0.34 % ID/g | 3.31 ± 0.13 % ID/g | 2.90 ± 0.32 % ID/g | 9.21 ± 0.63 % ID/g | 8.24 ± 0.36 % ID/g | 4.81 ± 0.27 % ID/g | 3.02 ± 0.15 % ID/g | 2 min | CNc1ccc(/C=N/N=C/c2ccc(OCC[18F])cc2)cc1 [[18F]88] | cleared faster in the brain of normal mice | can effectively pass through the blood-brain barrier |
|  | 2.95 ± 0.31 % ID/g | 3.24 ± 1.25 % ID/g | 4.78 ± 0.24 % ID/g | 5.42 ± 0.65 % ID/g | 10.88 ± 0.75 % ID/g | 10.62 ± 0.58 % ID/g | 6.06 ± 0.38 % ID/g | 4.55 ± 0.48 % ID/g | 2 min | CN(C)c1ccc(/C=N/N=C/c2ccc(OCCOCC[18F])cc2)cc1 [[18F]89] | cleared faster in the brain of normal mice | can effectively pass through the blood-brain barrier |
|  | 3.72 ± 0.44 % ID/g | 3.85 ± 0.26 % ID/g | 4.90 ± 0.61 % ID/g | 5.44 ± 0.40 % ID/g | 11.05 ± 1.70 % ID/g | 7.81 ± 0.60 % ID/g | 4.92 ± 0.41 % ID/g | 3.97 ± 0.28 % ID/g | 2 min | CNc1ccc(/C=N/N=C/c2ccc(OCCOCC[18F])cc2)cc1 [[18F]90] | cleared faster in the brain of normal mice | can effectively pass through the blood-brain barrier |
|  | 3.08 ± 0.45 % ID/g | 2.86 ± 0.28 % ID/g | 3.83 ± 0.27 % ID/g | 3.66 ± 0.40 % ID/g | 10.39 ± 1.07 % ID/g | 7.56 ± 0.91 % ID/g | 2.93 ± 0.13 % ID/g | 1.60 ± 0.10 % ID/g | 2 min | CN(C)c1ccc(/C=N/N=C/c2ccc(OCCOCCOCC[18F])cc2)cc1 [[18F]91] | cleared faster in the brain of normal mice | can effectively pass through the blood-brain barrier |
|  | 3.81 ± 0.35 % ID/g | 3.06 ± 0.49 % ID/g | 3.26 ± 0.17 % ID/g | 3.05 ± 0.45 % ID/g | 7.84 ± 0.50 % ID/g | 3.94 ± 0.13 % ID/g | 1.88 ± 0.03 % ID/g | 1.17 ± 0.07 % ID/g | 2 min | CNc1ccc(/C=N/N=C/c2ccc(OCCOCCOCC[18F])cc2)cc1 [[18F]92] | cleared faster in the brain of normal mice | can effectively pass through the blood-brain barrier |
|  | 3.53 ± 0.24 % ID/g | 3.16 ± 1.00 % ID/g | 3.64 ± 0.29 % ID/g | 2.46 ± 0.33 % ID/g | 11.39 ± 1.08 % ID/g | 5.55 ± 0.37 % ID/g | 2.41 ± 0.22 % ID/g | 1.44 ± 0.15 % ID/g | 2 min | CN(C)c1ccc(/C=N/N=C/c2ccc(OCCOCCOCC[18F])nc2)cc1 [[18F]93] | cleared faster in the brain of normal mice | can effectively pass through the blood-brain barrier |
|  | 4.30 ± 0.09 % ID/g | 3.40 ± 0.28 % ID/g | 3.66 ± 0.18 % ID/g | 2.59 ± 0.15 % ID/g | 8.59 ± 0.57 % ID/g | 4.09 ± 0.38 % ID/g | 2.40 ± 0.15 % ID/g | 1.36 ± 0.13 % ID/g | 2 min | CNc1ccc(/C=N/N=C/c2ccc(OCCOCCOCC[18F])nc2)cc1 [[18F]94] | cleared faster in the brain of normal mice | can effectively pass through the blood-brain barrier |

From patent US20210393810A1, “DIHYDRAZONE COMPOUNDS HAVING HIGH AFFINITY TO A BETA PROTEIN AND TAU PROTEIN, DERIVATIVES THEREOF AND USE THEREOF” (HTA CO., LTD., priority 2019, published 2021)
